Measured values as given in PubChem BioAssay AID330 (DTP/NCI, 2004).
Several values for one entry are separate records, joined by “and”; a condition that tells them apart may be missing. Equal entries are not always repeated. Inconclusive results and toxic doses are left out. The calls were made as follows: active = survival T/C of 150% or more; inactive = T/C below 125% in these data.

Tested on: P388 leukemia ip, CD2F1 mice, survival T/C
Test: NCI In Vivo Anticancer Drug Screen. Data for tumor model P388 Leukemia (intraperitoneal) in CD2F1 (CDF1) mice
Settings: endpoint: median survival time, higher = longer survival
Procedure, shortened: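 Mice carrying the transplanted tumor received test compound or vehicle. Survival was recorded in each group, and the value is the treated-group measurement divided by that of the vehicle-treated control group.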

[1] = dose: 50.0 mg/kg/injection, schedule: Q01DX005 (ip), vehicle: saline with Tween-80
[2] = dose: 100.0 mg/kg/injection, schedule: Q01DX005 (ip), vehicle: saline with Tween-80
[3] = dose: 200.0 mg/kg/injection, schedule: Q01DX005 (ip), vehicle: saline with Tween-80
[4] = dose: 12.5 mg/kg/injection, schedule: Q01DX009 (ip), vehicle: saline with Tween-80
[5] = dose: 25.0 mg/kg/injection, schedule: Q01DX009 (ip), vehicle: saline with Tween-80
[6] = dose: 50.0 mg/kg/injection, schedule: Q01DX009 (ip), vehicle: saline with Tween-80
[7] = dose: 25.0 mg/kg/injection, schedule: Q01DX009 (ip), vehicle: saline
[8] = dose: 50.0 mg/kg/injection, schedule: Q01DX009 (ip), vehicle: saline
[9] = dose: 12.5 mg/kg/injection, schedule: Q01DX009 (ip), vehicle: saline
[10] = dose: 200.0 mg/kg/injection, schedule: Q01DX009 (ip), vehicle: saline with Tween-80
[11] = dose: 100.0 mg/kg/injection, schedule: Q01DX009 (ip), vehicle: saline with Tween-80
[12] = dose: 100.0 mg/kg/injection, schedule: Q01DX001 (ip), vehicle: Klucel (hydroxypropylcellulose) (HPC)
[13] = dose: 200.0 mg/kg/injection, schedule: Q01DX001 (ip), vehicle: Klucel (hydroxypropylcellulose) (HPC)
[14] = dose: 400.0 mg/kg/injection, schedule: Q01DX001 (ip), vehicle: Klucel (hydroxypropylcellulose) (HPC)

Measured: T/C

CN(C)CCC(=O)C(=C/C=C/c1ccccc1)C(=O)CCN(C)C
inactive: dose: 25.0 mg/kg/injection, schedule: Q01DX005 (ip), vehicle: saline with Tween-80 100 % of control | [1] 121 % of control | [2] 123 % of control

O=C1OC(=O)C2CCCC1C2
inactive: dose: 50.0 mg/kg/injection, schedule: Q01DX009 (ip), vehicle: Klucel (hydroxypropylcellulose) (HPC) 108 % of control | dose: 100.0 mg/kg/injection, schedule: Q01DX009 (ip), vehicle: Klucel (hydroxypropylcellulose) (HPC) 102 % of control | dose: 200.0 mg/kg/injection, schedule: Q01DX009 (ip), vehicle: Klucel (hydroxypropylcellulose) (HPC) 102 % of control

CCOC(=O)c1c[nH]c2c(OC)ccc(OC)c2c1=O
inactive: [1] 99 % of control | [2] 100 % of control | [3] 100 % of control

c1ccc2c[s+]ccc2c1
inactive: dose: 50.0 mg/kg/injection, schedule: Q01DX009 (ip), vehicle: suspension in saline 90 % of control | dose: 100.0 mg/kg/injection, schedule: Q01DX009 (ip), vehicle: suspension in saline 97 % of control

C=C[Se](=C(C#N)C#N)c1ccccc1 (stereo unspecified)
inactive: dose: 25.0 mg/kg/injection, schedule: Q04DX002 (ip), vehicle: saline 111 % of control | dose: 50.0 mg/kg/injection, schedule: Q04DX002 (ip), vehicle: saline 104 % of control | dose: 100.0 mg/kg/injection, schedule: Q04DX002 (ip), vehicle: saline 99 % of control and 101 % of control | dose: 200.0 mg/kg/injection, schedule: Q04DX002 (ip), vehicle: saline 110 % of control | dose: 400.0 mg/kg/injection, schedule: Q04DX002 (ip), vehicle: saline 118 % of control

[Se]=[Mo]=[Se]
inactive: dose: 60.0 mg/kg/injection, schedule: Q01DX005 (ip), vehicle: saline with Tween-80 96 % of control | dose: 120.0 mg/kg/injection, schedule: Q01DX005 (ip), vehicle: saline with Tween-80 95 % of control | dose: 240.0 mg/kg/injection, schedule: Q01DX005 (ip), vehicle: saline with Tween-80 97 % of control

Nc1nc(N)c2nc3c(nc2n1)C(=O)N(c1ccc(C(=O)O)cc1)C3
inactive: dose: 6.25 mg/kg/injection, schedule: Q01DX009 (ip), vehicle: saline with Tween-80 106 % of control | [4] 115 % of control | [5] 117 % of control | [6] 108 % of control

O=C(O)c1cc(O)ccc1O
inactive: [7] 104 % of control | [8] 90 % of control | dose: 100.0 mg/kg/injection, schedule: Q01DX009 (ip), vehicle: saline 97 % of control | dose: 200.0 mg/kg/injection, schedule: Q01DX009 (ip), vehicle: saline 94 % of control

CC12CC(c3ccoc3)OC(=O)C1CCC13COC(=O)C1=CCCC32 (stereo unspecified)
inactive: dose: 0.25 mg/kg/injection, schedule: Q01DX009 (ip), vehicle: Klucel (hydroxypropylcellulose) (HPC) 96 % of control | dose: 0.5 mg/kg/injection, schedule: Q01DX009 (ip), vehicle: Klucel (hydroxypropylcellulose) (HPC) 88 % of control | dose: 1.0 mg/kg/injection, schedule: Q01DX009 (ip), vehicle: Klucel (hydroxypropylcellulose) (HPC) 90 % of control | dose: 2.0 mg/kg/injection, schedule: Q01DX009 (ip), vehicle: Klucel (hydroxypropylcellulose) (HPC) 114 % of control

COC(=O)/C=N/NS(=O)(=O)c1ccc(C)cc1
inactive: dose: 12.5 mg/kg/injection, schedule: Q01DX009 (ip), vehicle: other 102 % of control | dose: 25.0 mg/kg/injection, schedule: Q01DX009 (ip), vehicle: other 102 % of control | dose: 50.0 mg/kg/injection, schedule: Q01DX009 (ip), vehicle: other 100 % of control | dose: 100.0 mg/kg/injection, schedule: Q01DX009 (ip), vehicle: other 100 % of control

CC1CCCN(CCSSCCN2CCCC(C)C2)C1 (stereo unspecified)
inactive: [9] 109 % of control | [7] 113 % of control | [8] 113 % of control

CS(=O)(=O)OCC(=O)NCCNC(=O)COS(C)(=O)=O
inactive: dose: 12.5 mg/kg/injection, schedule: Q04DX003 (ip), vehicle: saline with Tween-80 100 % of control | dose: 25.0 mg/kg/injection, schedule: Q04DX003 (ip), vehicle: saline with Tween-80 108 % of control | dose: 50.0 mg/kg/injection, schedule: Q04DX003 (ip), vehicle: saline with Tween-80 120 % of control

c1coc(CNC2=NCCCCC2)c1
inactive: [9] 108 % of control | [7] 108 % of control | [8] 102 % of control

CC1=NN(C(C)(C)C)[Si](C)(C)C1
inactive: dose: 25.0 mg/kg/injection, schedule: Q01DX005 (ip), vehicle: Klucel (hydroxypropylcellulose) (HPC) 96 % of control | dose: 50.0 mg/kg/injection, schedule: Q01DX005 (ip), vehicle: Klucel (hydroxypropylcellulose) (HPC) 93 % of control | dose: 100.0 mg/kg/injection, schedule: Q01DX005 (ip), vehicle: Klucel (hydroxypropylcellulose) (HPC) 97 % of control

Cc1[nH]c2ccccc2c1-c1cc(-c2cc(-c3c(C)[nH]c4ccccc34)nc(N)n2)nc(N)n1
inactive: dose: 60.0 mg/kg/injection, schedule: Q01DX005 (ip), vehicle: Klucel (hydroxypropylcellulose) (HPC) 97 % of control | dose: 120.0 mg/kg/injection, schedule: Q01DX005 (ip), vehicle: Klucel (hydroxypropylcellulose) (HPC) 90 % of control

[Cl][Pt+2]([Cl])([Cl])[Cl].[Na+].[S-]c1ncnc2nc[nH]c12.[S-]c1ncnc2nc[nH]c12
inactive: dose: 132.0 mg/kg/injection, schedule: Q01DX009 (ip), vehicle: saline with Tween-80 100 % of control | [10] 109 % of control

c1ccc(-c2ccc(-c3csnn3)cc2)cc1
inactive: [4] 100 % of control | [5] 95 % of control | [6] 91 % of control and 94 % of control | [11] 91 % of control | [10] 88 % of control

O=C1NN(c2ccccc2)C(=O)/C1=C\c1ccccc1O
inactive: [5] 100 % of control and 96 % of control | dose: 43.75 mg/kg/injection, schedule: Q01DX005 (ip), vehicle: Klucel (hydroxypropylcellulose) (HPC) 104 % of control | dose: 43.75 mg/kg/injection, schedule: Q01DX009 (ip), vehicle: Klucel (hydroxypropylcellulose) (HPC) 95 % of control | [6] 94 % of control and 98 % of control | dose: 87.5 mg/kg/injection, schedule: Q01DX005 (ip), vehicle: Klucel (hydroxypropylcellulose) (HPC) 97 % of control | [11] 86 % of control and 97 % of control | dose: 175.0 mg/kg/injection, schedule: Q01DX005 (ip), vehicle: Klucel (hydroxypropylcellulose) (HPC) 98 % of control | dose: 175.0 mg/kg/injection, schedule: Q01DX009 (ip), vehicle: Klucel (hydroxypropylcellulose) (HPC) 102 % of control | [10] 86 % of control and 96 % of control | dose: 350.0 mg/kg/injection, schedule: Q01DX005 (ip), vehicle: Klucel (hydroxypropylcellulose) (HPC) 92 % of control | dose: 350.0 mg/kg/injection, schedule: Q01DX009 (ip), vehicle: Klucel (hydroxypropylcellulose) (HPC) 109 % of control | dose: 400.0 mg/kg/injection, schedule: Q01DX009 (ip), vehicle: saline with Tween-80 111 % of control

CC(=O)ONC(=O)CSc1nn2cc(-c3ccccc3)nc2s1
inactive: [1] 103 % of control | [2] 97 % of control | [3] 95 % of control

CC(NC(=O)OC(C)(C)C)C(=O)NC(C)C(=O)NC(C)C(=O)Nc1ccc([N+](=O)[O-])cc1 (stereo unspecified)
inactive: [1] 94 % of control | [2] 92 % of control | [3] 87 % of control

CC(C)(C)c1ccc2c(c1)C1=NC2=NC2=NC(=NC3=NC(=NC4=NC(=N1)c1ccc(C(C)(C)C)cc14)c1ccc(C(C)(C)C)cc13)c1ccc(C(C)(C)C)cc12
inactive: [12] 98 % of control | [13] 95 % of control | [14] 91 % of control

COc1ccc2cc3n(c(=Nc4ccccc4)c2c1OC)CCc1cc2c(cc1-3)OCO2
inactive: dose: 0.63 mg/kg/injection, schedule: Q01DX009 (ip), vehicle: water 97 % of control | dose: 1.25 mg/kg/injection, schedule: Q01DX009 (ip), vehicle: water 93 % of control | dose: 2.5 mg/kg/injection, schedule: Q01DX009 (ip), vehicle: water 101 % of control | dose: 5.0 mg/kg/injection, schedule: Q01DX009 (ip), vehicle: water 124 % of control | dose: 10.0 mg/kg/injection, schedule: Q01DX009 (ip), vehicle: water 99 % of control | dose: 20.0 mg/kg/injection, schedule: Q01DX009 (ip), vehicle: water 101 % of control

Cn1c(Br)c(/C=N/NC(N)=S)c2ccccc21
inactive: [12] 108 % of control | [13] 100 % of control | [14] 102 % of control
